Measurements: patent US20180028480A1, “METHODS OF REDUCING OR PREVENTING OXIDATIVE MODIFICATION OF MEMBRANE POLYUNSATURATED FATTY ACIDS” (Amarin Pharmaceuticals Ireland Limited, priority 2015, published 2018)

Legend:
[1] = Small angle x-ray diffraction of glucose-treated model membranes: structure and cholesterol domains (Example 4); conditions: for effect on membrane structure compared to control: 0 hours, 1:30 drug-to-phospholipid mole ratio, glucose 200 mg/dL
Method: Multilamellar vesicles (MLVs) were prepared as binary mixtures of DLPC (1.0 or 2.5 mg total phospholipid per sample) and cholesterol at a fixed cholesterol-to-phospholipid (C/P) mole ratio of 0.6:1. Component lipids (in chloroform) were transferred to 13×100 mm borosilicate culture tubes and combined with vehicle (ethanol) or an equal volume of fatty acid, vitamin E, or ATM stock solutions, each adjusted to achieve desired treatment concentrations. Samples were shell-dried under nitrogen gas and placed under vacuum for 1 h to remove residual solvent. After desiccation, each sample was resuspended in 1.0 mL glucose-containing saline to yield final phospholipid concentrations of 1.0 or 2.5 mg/mL (for lipid peroxidation or x-ray diffraction analysis, respectively). Lipid suspensions were then vortexed for 3 min at ambient temperature to form MLVs.
The membrane structural effects of glucose and the various compounds examined in this study were measured at 0, 72, and 96 hour intervals. Membrane lipid vesicles were oriented for x-ray diffraction analysis as described by others (e.g., Herbette et al., Biophys. J., vol. 20(2), pages 245-272 (1977)). Briefly, a 100 μL aliquot (containing 250 μg MLV) was aspirated from each sample and transferred to a Lucite® sedimentation cell fitted with an aluminum foil substrate upon which a given sample could be collected by centrifugation. Samples were then loaded into a Sorvall AH-629 swinging bucket rotor (DuPont Corp., Wilmington, Del.) and centrifuged at 35,000 g, 5° C., for 90 min.
After centrifugal orientation, sample supernatants were aspirated and aluminum foil substrates, each supporting a single membrane pellet, were removed from the sedimentation cells. […]
The d-space for any given membrane multibilayer is a measurement of the unit cell periodicity of the membrane lipid bilayer (e.g., the distance from the center of one lipid bilayer to the next including surface hydration), and is calculated from Bragg's Law, hλ=2 d sin θ, where h is the diffraction order, λ is the wavelength of the x-ray radiation (1.54 Å), d is the membrane lipid bilayer unit cell periodicity, and θ is the Bragg angle equal to one-half the angle between the incident beam and scattered beam.
The presence of cholesterol domains in a given membrane sample results in the production of distinct Bragg (diffraction) peaks having singular periodicity values of 34 and 17 Å (typically referred to as first- and second-order cholesterol domain peaks). Under the specific temperature and relative humidity conditions established for these experiments, the second-order, 17 Å cholesterol domain peak was well-delineated from other, neighboring cholesterol and phospholipid diffraction peaks and was thus used to quantitate relative cholesterol domain peak intensity. […]

[2] = test system: Human umbilical vein endothelial cells (HUVECs); assay: Nitric oxide release from HUVECs incubated with pretreated oxidized sdLDL (Example 7); format: cell-based; conditions: oxidized sdLDL pretreated at 10.0 μM
Method: All samples, with the exception of non-oxidized sdLDL controls, were subjected to copper-induced oxidation for 1 hour. Human umbilical vein endothelial cells (HUVECs) were incubated with the various sdLDL samples, stimulated with calcium, and monitored for nitric oxide (NO) and peroxynitrite (ONOO^-) release using nanosensor technology.

unfractionated LDL = assay: Copper-induced oxidation of unfractionated LDL, TBARS (Example 6); format: biochemical, human; conditions: 1.0 μM to 10.0 μM
Method: All test compounds were further diluted in ethanol or aqueous buffer as needed. Venous blood was collected from healthy volunteers into vacutainer tubes containing sodium EDTA. […] Plasma and lipoprotein fractions were maintained at 4° C. and protected from excessive exposure to light. Prior to oxidation experiments, EDTA was removed from the lipoprotein fraction using PD-10 desalting columns (GE Healthcare, Piscataway N.J.). After equilibration of the column with phosphate buffered saline (PBS), 2.5 mL of the lipoprotein fraction was loaded on the column and the flow-through discarded. The lipoprotein was then eluted with 3 mL of PBS. The LDL fractions were further diluted with PBS to obtain a 100 μg/mL apoB100 concentration. […] Sample TBARS concentrations were determined spectrophotometrically by measuring sample absorbances against a standard curve derived from the hydrolysis of 1,1,3,3-tetramethoxypropane. […] Differences between groups were analyzed using the two-tailed, Student's t-test (for comparisons between only two groups) or ANOVA followed by Dunnett or Student-Newman-Keuls multiple comparisons post-hoc analysis (for comparisons between three or more groups).

| SMILES | effect on membrane structure compared to control [1] | increase of NO release as compared to non-oxidized sdLDL treatment [2] [%] | increase of NO release as compared to oxidized LDL treatment [2] [%] | LDL oxidation (unfractionated LDL) | cholesterol domain peaks ([1]; 96 hours of oxidative conditions) | effect on cholesterol domain formation (cholesterol domain peak intensity) compared to control ([1]; any experimental time point (FIG. 5)) |
| --- | --- | --- | --- | --- | --- | --- |
| CC/C=C\C/C=C\C/C=C\C/C=C\C/C=C\CCCC(=O)O [EPA, cis-5,8,11,14,17-Eicosapentaenoic acid] | no appreciable effect on membrane structure | 23 | 53 | generally inhibit LDL oxidation |  |  |
| Cc1c(C)c2c(c(C)c1O)CC[C@@](C)(CCC[C@H](C)CCC[C@H](C)CCCC(C)C)O2 [vitamin E, α-tocopherol, reference compound] | no appreciable effect on membrane structure |  |  | did not inhibit LDL oxidation at any concentration | disproportionately greater | no significant effect on cholesterol domain formation |
